Measured values reported in paper PMC9260180, “Blocking the Farnesyl Pocket of PDEδ Reduces Rheb-Dependent mTORC1 Activation and Survival of Tsc2-Null Cells” (Frontiers in Pharmacology, 2022).
Where “and” joins values, the source holds several entries; their conditions need not be identical. Equal values may be shown once.

Columns and labels:
Tsc2-null MEFs [1] = experiment: Live/Dead and CytoTox-Glo cell assay in Tsc2-null MEFs; settings: Deltasonamide 1 6 µM, rapamycin 20 nM; for effect on cell numbers: vs DMSO
Tsc2-null MEFs [2] = experiment: XTT viability assay in Tsc2-null MEFs; assay type: cell-based, mouse; settings: after 24 h, Deltasonamide 1 6 µM, rapamycin 20 nM
Experimental: (§1) We used XTT based-Cell Proliferation Kit (Biological Industries, USA) according to the manufacturer’s instructions to assess cell viability and proliferation. Briefly, Tsc2-null or Tsc2-wt MEF cells were seeded in 96-well plates and grown in DMEM without phenol red (Biological Industries, Cromwell, USA) at 37°C in 5% CO2. […] After 4 h of incubation, viable cells were detected by measuring the absorbance at 450nm/630 nm using TECAN Infinite® 200 PRO microplate reader (Tecan Group Ltd. Männedorf, Switzerland). The results were expressed as a percentage of absorbance relative to the control group.

Tsc2-wt MEFs = experiment: XTT viability assay in Tsc2-wt MEFs; assay type: cell-based, mouse
Experimental: as §1

[3] = tested on: Rheb localization in Tsc2-wt MEF cells; experiment: GFP-Rheb cellular localization by confocal microscopy in Tsc2-wt MEFs; assay type: cell-based, mouse; settings: Tsc2-wt MEF cells with GFP-Rheb, 6 µM, 24 h
Experimental: For GFP proteins, Tsc2-wt MEF cells were electroporated with 3 µg of pEGFP-C1-RhebWT (GFP-Rheb) or pEGFP-C1 (GFP only) using NEON™ Transfection System (Invitrogen). Briefly, 200.000 cells were electroporated with the 10 µl tips at 1100 V for 30 mseg (one pulse). […] Cells were fixed with 4% w/v paraformaldehyde (PFA) for 10 min and permeabilized with 0.1% Triton X-100 in Phosphate-Buffered Saline (PBS) for 30 min. Then, samples were blocked for 1 h with 3% BSA-PBS and incubated overnight with primary antibody (1:200 dilution) in a dark/wet chamber at 4°C. Next, fixed cells were incubated with secondary antibody (1:500 dilution) and Hoechst (1:250 dilution) for 1 h in the dark/wet chamber at room temperature. The coverslips were mounted on a slide with DAKO mounting medium (Agilent, Santa Clara, USA). Images were analyzed by confocal fluorescence microscopy using the LSM780 NLO Confocal Spectral Microscope (Carl Zeiss, Jena, Germany).
Supplementary Figure 5. Deltasonamide 1 affects the cellular localization of Rheb. Tsc2-wt MEF cells were transfected with pEGFP-C1-GFP-RhebWT (GFP -Rheb) or pEGFP-C1 (GFP only) and treated with 6µM Deltas onamide 1 or DMSO for 24 hours. GFP-Rheb and GFP levels were analyzed by immunofluorescence and confocal microscopy. Scale bar = 20 µm.
(§2) (1 picture or pasted object on this page, not shown here)

Caco-2 cells = experiment: Caco-2 permeability assay
Experimental: To measure cellular permeability, Caco-2 cells were seeded on a transwell membrane in a 24-well format and grown for 3 weeks to form a monolayer of differentiated cells.

[4] = tested on: phospho-S6 ribosomal protein (Ser235/236) in Tsc2-null MEFs; experiment: S6 phosphorylation (pS6) by Western blot in Tsc2-null MEFs; assay type: cell-based, mouse; settings: 0.5-6 µM, 24 h
Experimental: (§3) p53−/− Tsc2+/+ mouse embryonic fibroblast (MEF) and p53−/− Tsc2−/− MEF cells (hereinafter referred to as Tsc2-wt and Tsc2-null MEFs) were kindly provided by David J. Kwiatkowski (Harvard Medical School, Boston, MA, USA). MEF cells were cultured in Dulbecco’s modified Eagles’s medium (DMEM) (Corning, New York, USA), supplemented with 100 μg/ml streptomycin (HyClone), 100 U/ml penicillin (HyClone), 10% fetal bovine serum (Biological Industries, Cromwell, USA) and incubated at 37°C in 5% CO2.
Proteins were extracted in cold lysis buffer (50 mM Tris-HCl pH 7.4; 10% glycerol; 200 mM NaCl2; 2.5 mM MgCl2; 1% Triton X-100; 1/100 protease inhibitors; 1/100 phosphatase inhibitors) and the protein concentration was determined by Bradford assay. […] Immunolabeled proteins were detected using ECL Western Blotting Detection Reagent (GE Healthcare, Chicago, USA) and visualized in Syngene PXi6 Documentation System (Frederick, MD, USA).
For GFP proteins, Tsc2-wt MEF cells were electroporated with 3 µg of pEGFP-C1-RhebWT (GFP-Rheb) or pEGFP-C1 (GFP only) using NEON™ Transfection System (Invitrogen). […] Images were analyzed by confocal fluorescence microscopy using the LSM780 NLO Confocal Spectral Microscope (Carl Zeiss, Jena, Germany).

[5] = tested on: mTORC1 signaling in Tsc2-wt MEFs; experiment: mTORC1 signaling by immunoblotting in Tsc2-wt MEFs; assay type: cell-based, mouse; settings: 4 h and 24 h, Deltasonamide 1 6 µM, rapamycin 20 nM
Experimental: (§4) Proteins were extracted in cold lysis buffer (50 mM Tris-HCl pH 7.4; 10% glycerol; 200 mM NaCl2; 2.5 mM MgCl2; 1% Triton X-100; 1/100 protease inhibitors; 1/100 phosphatase inhibitors) and the protein concentration was determined by Bradford assay. Total proteins were denaturized in loading buffer (50 mM Tris-HCl pH 6.8; 2% SDS; 0.1% bromophenol blue; 10% glycerol; 1% β-mercaptoethanol) by boiling for 5 min, separated by SDS-PAGE, and transferred to Polyvinylidene fluoride (PVDF) membrane (MilliporeSigma, Burlington, USA). For immunoblotting, all primary antibodies were diluted 1:1.000, except for anti-β-Actin antibody (1:10000 dilution). Secondary antibodies were diluted 1:10000. Immunolabeled proteins were detected using ECL Western Blotting Detection Reagent (GE Healthcare, Chicago, USA) and visualized in Syngene PXi6 Documentation System (Frederick, MD, USA).
Supplementary Figure 4. […].
and 24 h (right panel). Lysates were characterized by immunoblotting of the indicated proteins. Results
are representative of three independent experiments.
as §2

Smad/Smurf = experiment: yeast two-hybrid LacZ quantitative measurement, Smad/Smurf control interaction; settings: 7 and 24 h, titrated concentrations
Experimental: As a control, a yeast two-hybrid was performed using Smad (bait), Smurf (prey), and the empty vectors. To verify positive clones, diploid cells were grown on selective media either lacking tryptophan and leucine (DO-2) or lacking tryptophan, leucine, and histidine (DO-3). To detect lacZ gene expression, diploid cells co-transformed with bait and prey constructs were grown on DO-2 medium supplemented with X-gal substrate. […] To detect lacZ gene expression, diploid cells co-transformed with bait and prey constructs were grown on DO-2 medium supplemented with X-gal substrate. Co-transformed cells able to grow on DO-2 medium and form blue colonies in the presence of X-gal were considered positive bait-prey interaction.

[6] = tested on: phospho-p70 S6 kinase (Thr389) in Tsc2-null MEFs; experiment: S6K phosphorylation (Thr389) by Western blot in Tsc2-null MEFs; settings: 24 h
Excerpt: Levels of phospho-p70 S6 kinase (Thr389) (pS6K) were detected by Western blot and measured using densitometric analysis.

Tsc2-null MEFs [7] = experiment: BrdU assay in Tsc2-null MEFs; assay type: cell-based, mouse; settings: 24 h, Deltasonamide 1 6 µM, rapamycin 20 nM
Experimental: BrdU (5-Bromo-2-deoxyuridine) labeling, and detection kit II (Roche, Basel, Switzerland) were used for the analysis. Briefly, cells were labeled 45 min with 50 µM BrdU and fixed for 20 min at […] with a fixing solution (15 mM glycine pH 2.0, 70% ethanol). Then, cells were incubated with anti-BrdU antibody (1:20 dilution) and nucleases in incubation buffer (66 mM Tris, 0.66 mM MgCl2, 1 mM β-mercaptoethanol) for 30 min at 37°C in a wet chamber. For secondary antibody, Alexa 555 anti-mouse conjugated (1:500 dilution) was used. The nuclei were labeled with Hoechst 33342 diluted 1:250. Finally, the samples were mounted on a slide with DAKO mounting medium. At least 3 images were captured using Olympus CKX41 fluorescence microscope for each condition. BrdU positive cells were analyzed using ImageJ software.

[8] = tested on: phospho-4EBP1 (Thr37/46, Thr70) in Tsc2-null MEFs; experiment: 4EBP1 phosphorylation by Western blot in Tsc2-null MEFs; assay type: cell-based, mouse; settings: 24 h; for effect on 4EBP1 phosphorylation (p4EBP1 levels, top band): 6 µM; for change in electrophoretic pattern of total and phosphorylated 4EBP1: Deltasonamide 1 6 µM, rapamycin 20 nM
Experimental: as §3, §4

[9] = tested on: EGF-induced S6 phosphorylation in pancreatic cancer cell lines; design: method as in Papke et al., 2016; settings: another pancreatic cancer cell line; ref Papke et al., 2016; cited from earlier work

SMILES	effect on dead cells (Tsc2-null MEFs [1]; 24 h)	effect on cell numbers (Tsc2-null MEFs [1]; 24 h)	effect on percentage of dead cells (Tsc2-null MEFs [1]; 48 h)	effect on cell viability (XTT) (Tsc2-null MEFs [2])	effect on cell viability (XTT) (Tsc2-wt MEFs; 72 h, Deltasonamide 1 6 µM)	effect on intracellular Rheb distribution [3]	Caco-2 (pH 6.5/7.4) Papp (A→B) (Caco-2 cells; 10 µM, 2 h, 37°C)	Caco-2 (pH 6.5/7.4) Papp (B→A) (Caco-2 cells; 10 µM, 2 h, 37°C)	effect on S6 phosphorylation (pS6) [4]	effect on mTORC1 activity/signaling [5]	effect on the interaction between Smad and Smurf (Smad/Smurf)	LogIC50 of pS6K levels (Figure 3) ([6]; 0.5–8 µM)	effect on BrdU incorporation (Tsc2-null MEFs [7])	effect on 4EBP1 phosphorylation (p4EBP1 levels, top band) [8]	change in electrophoretic pattern of total and phosphorylated 4EBP1 [8]	effect on EGF-induced S6 phosphorylation [9]	Caco-2 (pH 6.5/7.4) Papp (A→B) (Caco-2 cells; Caco-2, pH 6.5)	Caco-2 (pH 6.5/7.4) Papp (B→A) (Caco-2 cells; Caco-2, pH 6.5)	effect on S6K phosphorylation ([6]; 6 µM)	effect on cell viability (XTT) (Tsc2-wt MEFs; 48 h, rapamycin 20 nM)
CNc1nccc(CN(CC2CCNCC2)S(=O)(=O)c2ccc(S(=O)(=O)N(Cc3ccc(Cl)cc3)C3CCCC3)cc2)n1 [Deltasonamide 1]	not associated with an increase in dead cells	significantly decreased	significantly increased	significantly diminished	reduced	disrupted	1.6 10^−6 cm/s and 1.56 10^−6 cm/s	13.67 10^−6 cm/s	dose-dependently reduced	did not affect	not affected	-5.347	significantly reduced	could not detect a significant effect	caused the appearance of lower molecular weight bands	–	–	–	–	–
Cc1ccc(-n2nc3c(=O)n(CCCC(=O)NCC(C)c4ccccc4)nc(C)c3c2C)cc1 (stereo not shown) [Deltazinone 1]	–	–	–	–	–	–	–	–	did not affect	–	not affected	–	–	ineffective	–	ineffective	41.1 10^−6 cm/s	25.1 10^−6 cm/s	ineffective	–
CO[C@H]1C[C@@H]2CC[C@@H](C)[C@@](O)(O2)C(=O)C(=O)N2CCCC[C@H]2C(=O)O[C@H]([C@H](C)C[C@@H]2CC[C@@H](O)[C@H](OC)C2)CC(=O)[C@H](C)/C=C(\C)[C@@H](O)[C@@H](OC)C(=O)[C@H](C)C[C@H](C)/C=C/C=C/C=C/1C [rapamycin]	–	significantly decreased	–	significantly diminished	–	–	–	–	–	significantly affected	–	–	significantly reduced	–	caused the appearance of lower molecular weight bands	–	–	–	–	significantly affected
